Key:
[1] = compound: CC1=CC(=CC=C1)NC2=NC(=CS2)C3=CC=NC=C3; assay: relative viability (nuclei count vs DMSO), 5 days (fraction); higher = more cells survive
Method in brief: (§1)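 Five library-drug doses spaced by √10 were pinned onto vehicle-anchored 1536-well plates of lung cancer cell lines that had been kept overnight at 37 °C. Cells went 5 days without medium change, then were fixed, permeabilised and Hoechst-stained together, imaged at 4× and counted by MetaXpress. Viability is the ratio of treated-well to vehicle-well nuclei, taken as a median over plates. Plates required control CV below 25% and at least one doubling.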

[2] = compound: Cc1ccc(NC(=O)c2ccc(CN3CCN(C)CC3)cc2)cc1Nc1nc(-c2cccnc2)cs1 [Masitinib]; assay: as above
Method in brief: as §1

| Cell Line | relative viability ([1]; 0.08 µM) | relative viability ([1]; 0.253 µM) | relative viability ([1]; 0.8 µM) | relative viability ([1]; 2.53 µM) | relative viability ([1]; 8 µM) | relative viability ([2]; 0.01 µM) | relative viability ([2]; 0.03162 µM) | relative viability ([2]; 0.1 µM) | relative viability ([2]; 0.3162 µM) | relative viability ([2]; 1 µM) |
| --- | --- | --- | --- | --- | --- | --- | --- | --- | --- | --- |
| NCI-H460 | 0.965 | 0.908 | 0.936 | 0.884 | 0.857 | 0.864 | 1.01 | 0.949 | 0.876 | 0.983 |
| NCI-H520 | 0.922 | 1.06 | 1.03 | 1.08 | 0.943 | 1.01 | 1.11 | 1.24 | 0.999 | 1.01 |
| NCI-H522 | 0.894 | 0.886 | 0.931 | 0.925 | 1.15 | 1.06 | 0.815 | 0.866 | 1.07 | 0.974 |
| NCI-H596 | 0.917 | 0.883 | 0.86 | 0.948 | 0.803 | 0.934 | 1.13 | 0.949 | 0.901 | 0.837 |
| NCI-H647 | 0.816 | 0.87 | 0.797 | 0.869 | 0.76 | 0.926 | 0.959 | 1.07 | 0.983 | 0.873 |
| NCI-H650 | 0.805 | 0.881 | 1.01 | 0.752 | 1.15 | 0.998 | 0.963 | 1.09 | 1.04 | 0.899 |
| NCI-H661 | 0.907 | 0.944 | 0.913 | 0.914 | 0.99 | 0.9 | 0.977 | 0.986 | 0.967 | 0.947 |
| NCI-H727 | 0.698 | 0.737 | 0.808 | 0.791 | 0.924 | 0.947 | 0.948 | 1.08 | 0.945 | 0.92 |
| NCI-H838 | 0.823 | 0.891 | 0.894 | 0.835 | 0.846 | 0.867 | 0.855 | 0.955 | 0.907 | 0.929 |
| NCI-H1299 | 0.981 | 0.997 | 0.968 | 1.02 | 0.937 | 1.06 | 1.01 | 1.05 | 1.04 | 0.984 |
| NCI-H1355 | 0.769 | 0.73 | 0.768 | 0.694 | 0.65 | 0.813 | 0.723 | 0.851 | 0.762 | 0.966 |
| NCI-H1395 | 0.765 | 0.734 | 0.898 | 0.729 | 0.766 | 0.882 | 0.965 | 1.04 | 0.967 | 0.85 |
| NCI-H1437 | 0.976 | 0.882 | 0.938 | 0.874 | 0.856 | 0.838 | 0.93 | 1.06 | 0.986 | 0.85 |
| NCI-H1563 | 0.917 | 1.04 | 0.954 | 0.983 | 0.838 | 0.9 | 0.975 | 0.983 | 0.931 | 0.937 |
| NCI-H1623 | 0.948 | 0.886 | 0.894 | 0.81 | 0.84 | 0.982 | 0.883 | 0.894 | 0.889 | 0.905 |
| NCI-H1648 | 0.659 | 0.814 | 0.797 | 0.87 | 0.758 | 0.907 | 0.599 | 1.01 | 0.776 | 0.896 |
| NCI-H1650 | 0.715 | 0.841 | 0.962 | 0.687 | 0.434 | 0.798 | 0.979 | 0.871 | 0.885 | 0.89 |

| Cell Line | relative viability ([1]; 0.08 µM) | relative viability ([1]; 0.253 µM) | relative viability ([1]; 0.8 µM) | relative viability ([1]; 2.53 µM) | relative viability ([1]; 8 µM) | relative viability ([2]; 0.01 µM) | relative viability ([2]; 0.03162 µM) | relative viability ([2]; 0.1 µM) | relative viability ([2]; 0.3162 µM) | relative viability ([2]; 1 µM) |
| --- | --- | --- | --- | --- | --- | --- | --- | --- | --- | --- |
| NCI-H1651 | 0.95 | 0.918 | 1.03 | 0.87 | 0.963 | 0.899 | 0.97 | 0.954 | 0.988 | 0.971 |
| NCI-H1666 | 0.866 | 0.83 | 0.818 | 0.705 | 0.688 | 0.779 | 0.944 | 0.939 | 0.846 | 0.961 |
| NCI-H1703 | 0.831 | 0.977 | 0.907 | 0.986 | 0.946 | 0.866 | 0.821 | 0.526 | 0.32 | 0.261 |
| NCI-H1734 | 0.864 | 0.952 | 1.03 | 0.988 | 0.96 | 0.957 | 1.08 | 1.06 | 0.976 | 0.942 |
| NCI-H1755 | 0.926 | 0.942 | 0.866 | 0.857 | 0.697 |  | 0.935 | 0.886 | 1.02 | 0.935 |
| NCI-H1792 | 0.746 | 0.698 | 0.793 | 0.653 | 0.753 | 0.76 | 0.76 | 1.04 | 0.814 | 0.735 |
| NCI-H1793 | 0.75 | 0.801 | 0.898 | 0.816 | 0.841 | 0.886 | 0.804 | 0.878 | 0.978 | 0.795 |
| NCI-H1915 | 0.937 | 0.961 | 0.962 | 0.938 | 0.89 |  | 0.999 |  | 1 | 0.977 |
| NCI-H1944 | 0.871 | 0.912 | 0.958 | 0.765 | 0.809 |  | 0.972 |  | 0.799 | 0.955 |
| NCI-H1975 | 0.798 | 0.762 | 0.843 | 0.714 | 0.549 | 0.983 | 0.923 | 1.06 | 0.676 | 0.852 |
| NCI-H1993 | 0.67 | 0.788 | 0.768 | 0.792 | 0.876 | 0.91 | 0.867 | 0.986 | 0.826 | 0.917 |
| NCI-H2009 | 0.877 | 0.944 | 0.98 | 0.945 | 0.893 | 0.806 | 0.991 | 0.922 | 0.994 | 0.981 |
| NCI-H2023 | 0.898 | 0.94 | 0.926 | 0.876 | 0.633 | 0.952 | 1.01 | 0.984 | 0.922 | 0.901 |
| NCI-H2085 | 0.99 | 1 | 0.968 | 0.94 | 0.826 | 0.891 | 0.983 | 1.01 | 1.05 | 0.958 |
| NCI-H2087 | 0.951 | 0.895 | 1.01 | 0.877 | 0.93 | 0.961 | 1.22 | 1.07 | 1.18 | 1.01 |
| NCI-H2126 | 0.881 | 0.864 | 0.893 | 0.824 | 0.863 | 0.908 | 0.996 | 0.978 | 0.847 | 0.931 |
| NCI-H2170 | 0.901 | 1.01 | 0.945 | 0.942 | 0.824 | 0.843 | 0.933 | 0.983 | 1.04 | 0.991 |

Reference: the supplement of paper PMC10307832
